Where two headings read alike, the source gives them in different places.
Columns and labels:
[1] = Ethylene/propylene copolymerization in tubular reactor (polymerization rate); conditions: for Effectiveness in polymerizing ethylene/propylene compared to VCl4 (in words): tubular reactor process; for Polymerization Rate (polymer made in the reactor): tubular reactor, 15° C. at the initial zone, adiabatic, premix 8 sec at 10° C. (Example 12) or -10° C. (all others)
Source text: The polymerization results are shown in Table II and are expressed/as polymer made in the reactor in gms per hour.

[2] = Copolymerization of norbornene type monomers with ethylene/propylene in CFSTR; conditions: 30° C.
Procedure: Polymerization experiments were conducted in a continuous flow stirred tank reactor process wherein norbornene type monomers such as norbornene and 5-ethylidene-2-norbornene (ENB) are copolymerized employing the invention catalysts. The polymerization was conducted under the following conditions:
Ethyl aluminum sesquichloride:
Tetraethoxysilane at .208 gms/hr

[3] = Ethylene/propylene copolymerization in continuous flow stirred tank reactor (catalyst productivity); conditions: CFSTR, residence time 11 minutes
Procedure: A series of copolymers based on ethylene and propylene monomers were prepared in a continuous flow stirred tank reactor using the vanadium
The polymerization results as set forth in Table 1 are expressed as polymer made in the reactor in gms per hour.

[4] = Preparation of polyethylene (batch ethylene polymerization); conditions: 1 mmole catalyst, 5 mmoles ethyl aluminum sesquichloride, room temperature, 0.5 hrs
Procedure: In a 1.5 liter reaction vessel was introduced 800 ml of hexane. This was maintained at room temperature and ethylene was slowly bubbled in at the rate of 34 gms/hour. When the solution was saturated, 5 mmoles of Ethyl aluminum sesquichloride was added as a solution in hexane followed by a solution of 1 mmole of the transition metal catalyst compound dissolved in toluene. […] The polymerization was maintained for 0.5 hrs with constant monomer addition. At the end of the polymerization period, the polymerization was terminated by the addition of 5 ml of isopropanol and the polymer was recovered by filtration and dried to constant weight.

[5] = Conversion of vanadium component into active catalyst (tubular reactor, premixing); conditions: premixing residence time 8 seconds, temperature varied to maximize conversion
Procedure: The vanadium component attains a maximum conversion to the active catalyst under certain premixing conditions determined by the concentrations of the vanadium and aluminum components and the residence time in the premixing zone and the reaction temperature. The experiment was conducted with identical concentrations of vanadium compound and the same molar ratio of aluminum to vanadium. The premixing experiment was run for the residence time of 8 seconds and the reaction temperature was varied to maximize the conversion of the vanadium component into the active catalyst.

[6] = tubular reactor
[7] = Catalyst lifetime in isothermal tubular reactor polymerization, first order decay; conditions: isothermal 40° C.
[8] = tubular reactor systems, pre-mixing and aging, in some cases; cited from earlier work
[9] = Condition A: no norbornene monomer
[10] = Condition B: Norbornene at 10.3 gms/hr
[11] = Condition C: Norbornene at 20.6 gms/hr
[12] = Condition D: ENB at 12.4 gms/hr + Tetraethoxysilane at .208 gms/hr

**Q.** What does the source list for CC(=O)C=C(C)[O][V]([Cl])[O]C(C)=CC(C)=O [Catalyst Code 2, Bis (2,4-pentanedionate) mono chloro vanadium (+3)]?
**A.** Effectiveness in polymerizing ethylene/propylene compared to VCl4 (in words) [1]: significantly more effective than VCL4 in polymerizing ethylene/propylene monomers; Polymerization Rate (polymer made in the reactor) [1]: 878 gms per hour; Polymerization rate [2, 9]: 169 gms/hr; Polymerization rate [2, 10]: 164 gms/hr; Polymerization rate [2, 11]: 159 gms/hr; Polymerization rate [2, 12]: 152 gms/hr; Catalyst Productivity at Specified Temperature (polymer made in the reactor) ([3]; 30° C.): 92 gms per hour; Catalyst Productivity at Specified Temperature (polymer made in the reactor) ([3]; 45° C.): 64 gms per hour; Catalyst Productivity at Specified Temperature (polymer made in the reactor) ([3]; 60° C.): 51 gms per hour; Wt of PE [4]: 14.3 GMS; Catalyst Conv % (percentage of vanadium converted to the active catalyst at maximum) [5]: 72%; Half-Life at 40° C. [6]: 11.6 s

**Q.** With CC(=O)C=C(C)[O-].CCCCCC(=O)[O-].[Cl-].[V+3] [Catalyst Code 3, Hexanoate (2,4-Pentanedionate) mono chloro vanadium (+3)] as the compound, how does the “Effectiveness in polymerizing ethylene/propylene compared to VCl4 (in words)” value [1] read?
**A.** Its value is “significantly more effective than VCL4 in polymerizing ethylene/propylene monomers”.

**Q.** What about the “Polymerization Rate (polymer made in the reactor)” value [1] of the same compound?
**A.** The value was 891 gms per hour.

**Q.** And the Polymerization rate [2, 9]?
**A.** The Polymerization rate was 165 gms/hr.

**Q.** What about the Polymerization rate [2, 10] of the same compound?
**A.** The Polymerization rate was 178 gms/hr.

**Q.** And the Polymerization rate [2, 11]?
**A.** The Polymerization rate was 164 gms/hr.

**Q.** What about the Polymerization rate [2, 12] of the same compound?
**A.** The Polymerization rate was 165 gms/hr.

**Q.** And the “Catalyst Productivity at Specified Temperature (polymer made in the reactor)” value (from here on “Catalyst Productivity”) ([3]; 30° C.)?
**A.** Its value is 87 gms per hour.

**Q.** What about the “Catalyst Productivity” value ([3]; 45° C.) of the same compound?
**A.** Its value is 64 gms per hour.

**Q.** What about the “Catalyst Productivity” value ([3]; 60° C.) of the same compound?
**A.** Its value is 51 gms per hour.

**Q.** And the “Wt of PE” value [4]?
**A.** The value was 15.0 GMS.

**Q.** What about the “Half-Life at 40° C.” value [7] of the same compound?
**A.** The value was 13.8 s.

**Q.** What about the “Catalyst Conv % (percentage of vanadium converted to the active catalyst at maximum)” value [5] of the same compound?
**A.** The value was 75%.

**Q.** For “Bis hexanoate mono chloro titanium [Catalyst Code 5]”, which “Wt of PE” value [4] is on record?
**A.** Its value is 13.5 GMS.

**Q.** Which “Effectiveness in polymerizing ethylene/propylene compared to VCl4 (in words)” value [1] does the source give for “Bis hexanoate mono chloro vanadium (+3) [Catalyst Code 1]” here?
**A.** Its value is “significantly more effective than VCL4 in polymerizing ethylene/propylene monomers”.

**Q.** What about the “Polymerization Rate (polymer made in the reactor)” value [1] of the same compound?
**A.** Its value is 832 gms per hour.

**Q.** What about the Polymerization rate [2, 9] of the same compound?
**A.** The Polymerization rate was 171 gms/hr.

**Q.** What about the Polymerization rate [2, 10] of the same compound?
**A.** The Polymerization rate was 171 gms/hr.

**Q.** What about the Polymerization rate [2, 11] of the same compound?
**A.** The Polymerization rate was 168 gms/hr.

**Q.** And the Polymerization rate [2, 12]?
**A.** The Polymerization rate was 160 gms/hr.

**Q.** What about the “Catalyst Productivity” value ([3]; 30° C.) of the same compound?
**A.** The value was 95 gms per hour.

**Q.** And the “Catalyst Productivity” value ([3]; 45° C.)?
**A.** The value was 68 gms per hour.

**Q.** And the “Catalyst Productivity” value ([3]; 60° C.)?
**A.** Its value is 58 gms per hour.

**Q.** What about the “Wt of PE” value [4] of the same compound?
**A.** Its value is 13.9 GMS.

**Q.** And the “Half-Life at 40° C.” value [7]?
**A.** The value was 19.8 s.

**Q.** What about the “Catalyst Conv % (percentage of vanadium converted to the active catalyst at maximum)” value [5] of the same compound?
**A.** The value was 67%.

**Q.** With “Hexanoate Salicaldehyde mono chloro vanadium (+3) [Catalyst Code 4]” as the compound, how does the “Catalyst Productivity” value ([3]; 30° C.) read?
**A.** Its value is 90 gms per hour.

**Q.** What about the “Catalyst Productivity” value ([3]; 45° C.) of the same compound?
**A.** The value was 73 gms per hour.

**Q.** And the “Catalyst Productivity” value ([3]; 60° C.)?
**A.** Its value is 56 gms per hour.

**Q.** And the “Wt of PE” value [4]?
**A.** The value was 15.0 GMS.

**Q.** What about the “Half-Life at 40° C.” value [7] of the same compound?
**A.** Its value is 10.0 s.

**Q.** With “Tetra chloro vanadium (+4) [Catalyst Code 0, reference compound]” as the compound, how does the “Deactivation of catalyst formed, based on the moles of the initial vanadium compound added” value [8] read?
**A.** The value was “up to 55 mole percent”.

**Q.** What about the “Half-Life at 40° C.” value [7] of the same compound?
**A.** Its value is 2.5 s.

Reference: patent US5021595A, “Transition metal catalyst composition for olefin polymerization” (Exxon Chemical Patents Inc., priority 1990, dated 1991)
